For two compounds, IC50 and ED50 results are on record in ChEMBL document CHEMBL1129740, “Structure-activity relationships of a series of substituted benzamides: potent D2/5-HT2 antagonists and 5-HT1a agonists as neuroleptic agents” (J Med Chem, 1996).

The target of experiment [1] is T1, 5-hydroxytryptamine receptor 1A (Rattus norvegicus, UniProt P19327).
T1 sequence (P19327 whole entry): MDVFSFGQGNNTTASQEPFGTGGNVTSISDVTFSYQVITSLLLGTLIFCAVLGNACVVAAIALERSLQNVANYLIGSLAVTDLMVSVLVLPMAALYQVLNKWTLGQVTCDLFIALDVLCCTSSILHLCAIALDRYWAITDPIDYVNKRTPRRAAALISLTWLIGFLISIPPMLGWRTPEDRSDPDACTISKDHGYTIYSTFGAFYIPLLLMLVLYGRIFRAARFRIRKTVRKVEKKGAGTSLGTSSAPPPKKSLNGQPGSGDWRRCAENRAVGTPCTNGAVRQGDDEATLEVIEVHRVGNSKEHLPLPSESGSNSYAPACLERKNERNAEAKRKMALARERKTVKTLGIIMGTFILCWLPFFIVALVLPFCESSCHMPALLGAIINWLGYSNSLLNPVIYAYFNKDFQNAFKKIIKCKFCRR
Nature of the experiment: In vitro inhibitory activity against [3H]8-OH-DPAT binding to 5-hydroxytryptamine 1A receptor.

The target in experiment [2] is Serotonin 2 (5-HT2) receptor (Rattus norvegicus, UniProt P30994+P08909+P14842). In words: In vitro inhibitory activity against [3H]ketanserin binding to 5-hydroxytryptamine 2 receptor. It counts as protein assay.
In experiment [3] the test system is Mus musculus. Nature of the experiment: In vivo effective dose to antagonize the apomorphine induced climbing response in mice administered intraperitoneally. (value in bracket denotes 95% confidence limit). Format: functional. To be noted: ip.
Experiment [4] relates to Mus musculus. In words: In vivo effective dose to antagonize the apomorphine induced climbing response in mice administered perorally. value in bracket denotes 95% confidence limit). Format: functional. To be noted: po.
The subject of experiment [5] is Mus musculus. In words: In vivo effective dose to antagonize the apomorphine induced climbing response in stereotypy mouse administered perorally Value in parentheses is 95% confidence limits. Format: functional. To be noted: po.
The subject of experiment [6] is Mus musculus. In words: In vivo effective dose to antagonize the apomorphine induced climbing response in stereotype mouse administered intraperitoneally ( value in bracket indicates 95% confidence limit). Format: functional. The settings on record: ip.
The test system of experiment [7] is Mus musculus. Nature of the experiment: In vivo effective dose to induce catalepsy in mouse administered perorally. Value in parentheses is 95% confidence limits. The settings on record: po. Format: functional.
For experiment [8], the system named is Mus musculus. In words: In vivo effective dose required to antagonize the apomorphine induced climbing response in mice administered intraperitoneally. It counts as functional. The settings on record: ip.
The subject of experiment [9] is Mus musculus. In words: In vivo effective dose to antagonize the apomorphine induced climbing response in mice administered perorally. Format: functional. To be noted: po.

With `Cl.Nc1ccccc1C(=O)NCCCCN1CCN(c2nsc3ccccc23)CC1`, the IC50 in [1] came out at 3.8 nM; in experiment [2], 3.3 nM. Further, the 50% effective dose (ED50) is 1.5 mg/kg with Mus musculus [3]; 10.1 mg/kg in the experiment on Mus musculus [4]; 91.1 mg/kg with Mus musculus [5]; 10.2 mg/kg with Mus musculus [6]; 192 mg/kg in the experiment on Mus musculus [7].
With `Cl.O=C(NCCCCN1CCN(c2nsc3ccccc23)CC1)c1ccccc1O`, the results for the IC50 in [1] and in experiment [2] were 12 nM and 3.9 nM, respectively. Besides, the ED50 in the experiment on Mus musculus [8] worked out at 1 mg/kg; with Mus musculus [9], 21.5 mg/kg.
